The test system of data set [1] is IL-1β cytokine output from THP-1 cells. The data set is described as follows: THP-1 AlphaLISA IL-1β cytokine assay. In kind it is cell-based. The following applies: Homo sapiens, THP-1, differentiated THP-1 cells, LPS 24 hr then Nigericin 1 hour.
The nature of data set [2]: Hepatocyte stability assay, mouse. In kind it is in vitro ADME. The following applies: cryopreserved hepatocytes, 10 μM compound, 0.5×10^6 cells/mL, 60 min, read-out: T½.
The test system of data set [3] is hepatocytes. The data set is described as follows: Hepatocyte stability assay, mouse. The format is in vitro ADME. The note with it: 10 μM compound, 0.5×10^6 cells/mL, 60 min.
The nature of data set [4]: Hepatocyte stability assay, human. The format is in vitro ADME. The following applies: cryopreserved hepatocytes, 10 μM compound, 0.5×10^6 cells/mL, 60 min, read-out: T½.
For data set [5], the system named is hepatocytes. The experiment in a line: Hepatocyte stability assay, human. The format is in vitro ADME. The following applies: 10 μM compound, 0.5×10^6 cells/mL, 60 min.
Data set [6] concerns IL-6 cytokine output from THP-1 cells. The experiment in a line: THP-1 AlphaLISA IL-6 cytokine assay. In kind it is cell-based. The following applies: Homo sapiens, THP-1, differentiated THP-1 cells, LPS 24 hr then Nigericin 1 hour.
In data set [7] the test system is NRF2 (nuclear factor erythroid 2-related factor 2). The experiment in a line: NRF2 +/−GSH activation assay (DiscoverX PathHunter NRF2 translocation kit, U2OS cells). In kind it is cell-based. The note with it: Homo sapiens; for Emax: U2OS, normalised to dimethyl fumarate high control; for EC50: U2OS PathHunter cells, 6 hours.
Setting [8] is: +GSH, 30 minute compound-GSH pre-incubation.

The text below walks through data of patent publication US20230399289A1, “ITACONIC ACID DERIVATIVES” (Sitryx Therapeutics Limited, priority 2020, published 2023).

The structures appear in SMILES notation.

For orientation: IC50 means the concentration at which inhibition is half-maximal. High values mean weaker potency in that assay, low ones greater potency in that assay. In general, Emax refers to the maximal effect, on the per cent scale that the assay sets. Broadly, the EC50 is the concentration needed to bring the measured effect to its halfway point. A low value points to an effect from little substance.

Consider `C=C(CC(=O)OC1(c2ccc(SC(F)(F)F)cc2)CCC1)C(=O)OCC(=O)O` [Example 34, 2-((2-methylene-4-oxo-4-(1-(4-((trifluoromethyl)thio)phenyl)cyclobutoxy)butanoyl)oxy)acetic acid], for which the IC50 in data set [1] amounted to 5.1 µM; in data set [6], 2.7 µM. Further, the half-life at 10 μM in data set [2] was 0.383 h; in data set [4], 1.93 h. Moreover, the CIint came to 74 μL min^−1 10^−6 cells in data set [3] and 11 μL min^−1 10^−6 cells in data set [5]. The Emax in data set [7] (+GSH) was 2.8%; in data set [7] (−GSH) it was 0%. The EC50 in data set [7] (setting [8]) is greater than 100 µM; in data set [7] (−GSH), greater than 54.8 µM.
As for `C=C(CC(=O)OC1(c2cc(Cl)cc(Cl)c2)CCC1)C(=O)OCC(=O)O` [Example 1, 2-((4-(1-(3,5-dichlorophenyl)cyclobutoxy)-2-methylene-4-oxobutanoyl)oxy)acetic acid], the results for the IC50 in data set [1] and in data set [6] were 9.4 µM and 4.6 µM, respectively. In addition, the results for the half-life at 10 μM in data set [2] and in data set [4] were 0.4 h and 1.93 h, respectively. The CIint in data set [3] was 52 μL min^−1 10^−6 cells; in data set [5], 13 μL min^−1 10^−6 cells. Also, the Emax in data set [7] (+GSH) came to 259%; in data set [7] (−GSH), 375%. Moreover, the EC50 is 11.1 µM in data set [7] (setting [8]) and 7.7 µM in data set [7] (−GSH).
Consider `C=C(CC(=O)OC1(c2cc(Cl)ccc2Cl)CCC1)C(=O)OCC(=O)O` [Example 5, 2-((4-(1-(2,5-dichlorophenyl)cyclobutoxy)-2-methylene-4-oxobutanoyl)oxy)acetic acid], for which the IC50 in data set [1] was determined as 10.6 µM; in data set [6] it was 5.3 µM. Moreover, the half-life at 10 μM in data set [2] amounted to 0.4 h; in data set [4], 2.87 h. Besides, the CIint in data set [3] was determined as 80 μL min^−1 10^−6 cells; in data set [5], 9 μL min^−1 10^−6 cells. The figures for the Emax in data set [7] (+GSH) and in data set [7] (−GSH) were 185% and 208%, respectively. In addition, the EC50 in data set [7] (setting [8]) amounted to 25.4 µM; in data set [7] (−GSH) it was 16 µM.
